Test results from US20260102457A1, “ANTICOAGULANT-PEPTIDE NANOGRANULES FOR THROMBOSIS-ACTUATED ANTICOAGULATION” (The Penn State Research Foundation, priority 2022, published 2026).
Where no end group is shown, it is not given here.

Experiments:
[1] = tested on: activated platelets; assay: Platelet localization and binding (confocal microscopy, flow cytometry); assay type: cell-based, bovine; details: 15 minutes incubation
Procedure: Bovine platelets were acquired from bovine PRP by centrifugation (800 rcf, 15 minutes), labelled with DiI (5 μg/mL), washed, and resuspended in PBS. At the time of treatment, platelets were further centrifuged (800 rcf, 15 minutes) to replace PBS supernatant with treatment solutions. Treatments of AMCA/FITC HMG, FITC-MAD1, or AMCA-heparin were prepared in PBS at equivalent concentrations, incubated with platelet samples for 15 minutes and then transferred to 4-well chambered slide (500 μL) before imaging using an Olympus FluoView 1000 confocal microscope (Tokyo, Japan).
MAD1-platelet binding was analyzed via flow cytometry by resuspending platelets in PBS containing 1 mg/mL FITC-MAD1. Blank PBS was used as an untreated control. After a 15-minute incubation, treated platelets were centrifuged (800 rcf, 15 minutes) and resuspended in PBS before analysis using a Guava Flow Cytometer (Millipore Sigma; Burlington, MA). Data was analyzed by FlowJo software.

[2] = tested on: bovine platelet rich plasma (PRP); details: equivalent heparin concentration of 2 μg/mL, FIG. 3b
Procedure: Here, bovine PRP was acquired from the top clear layer after centrifuging citrated bovine whole blood at 600 rcf for 30 minutes (4° C.) with minimum acceleration/break ramps. […] Clot formation was initiated by combining 450 μL bovine PRP, 50 μL HMG treatment solution, and 50 μL 0.1M CaCl2) in a 24-well plate. DI water was included as a negative control. Samples were mixed on an oscillating rocker plate and clotting time determined as the time required for observable aggregate formation upon recalcification.

[3] = In vivo heparin serum/plasma concentration over time; set-up: species or system C57BL/6J mice; details: for time of highest heparin serum concentration: first sampling timepoint; for time to complete clearance from serum: post administration; for heparin serum half-life (t1/2): single dose 10 IU heparin
Procedure: (§1) Murine studies were performed under IACUC protocol 202102036. HMG particles were prepared using rhodamine-heparin doped 20 vol % into unlabeled heparin before electrospray synthesis. Dialyzed HMG particles were concentrated by Centri Vap DNA Concentrator to achieve 0.5 mg/mL equivalent heparin. Sterile 10×PBS was diluted ten-fold into samples before injection of a 200 μL volume into C57BL/6J mice. Two groups (n=4) received free heparin given via tail vein injection or injected subcutaneously in the neck scruff. A third group (n=4) received HMG sample as a subcutaneous depot in the neck scruff. All mice received a final heparin dose of 10 IU. At each time point, mice were sacrificed, and blood samples collected into citrate tubes via cardiac puncture. Coagulation time was determined on whole blood samples via INTEM analysis on a ROTEM delta coagulation analyzer (Werfen; Bedford, MA). Clotting times were chosen to evaluate the efficacy of each treatment's ability to inhibit thrombin-linked platelet activation and initial fibrin polymerization/recruitment. INTEM coagulation analysis was selected based on its established sensitivity for the presence of heparin. For a typical experiment, serum is isolated via centrifugation (1000 rcf, 10 minutes) and fluorescence measurements taken (λex=560 nm, λem=590 nm). Kidney, liver, and spleen tissues were also collected and homogenized before centrifugation at 10,000 rcf for 20 minutes to remove bulk fibrous structures. 100 μL of the remaining supernatant was evaluated for heparin presence via fluorescence measurements (λex=560 nm, λem=590 nm) using a BioTek Cytation 3 Plate Reader.

[4] = tested on: whole blood coagulation; assay: In vivo anticoagulation: blood clotting time (INTEM, ROTEM); set-up: species or system C57BL/6J mice
Procedure: as §1

[5] = Tissue biodistribution of heparin (liver, kidney, spleen fluorescence); assay type: in vivo, C57BL/6J mice; details: kidneys
Procedure: as §1, with “INTEM coagulation analysis was selected based on its established sensitivity for the presence of heparin.” left out, “Kidney, liver, and spleen tissues were also collected and homogenized before centrifugation at 10,000 rcf for 20 minutes to remove bulk fibrous structures.” left out

[6] = clinical background; cited from earlier work

Row | Substance | binding to activated platelets [1] | clotting time of blood treated with peptide alone [2] | time of highest heparin serum concentration ([3]; intravenous) | time to complete clearance from serum ([3]; intravenous) | heparin serum half-life (t1/2) ([3]; intravenous) | time of transient spike in heparin serum concentration after dosing ([3]; subcutaneous) | time of highest heparin serum concentration ([3]; subcutaneous) | time to complete clearance from serum ([3]; subcutaneous) | heparin serum half-life (t1/2) ([3]; subcutaneous) | blood clotting time ([4]; intravenous, 0.5 hour time point) | time to return to basal clotting activity ([4]; intravenous, post administration, basal 3.5 minutes) | change in clotting behavior ([4]; subcutaneous, 0.5-24 hours) | tissue biodistribution / clearance route of heparin ([5]; intravenous) | tissue biodistribution / clearance route of heparin ([5]; subcutaneous) | plasma half-life (t1/2) [6]
1 | KRWHWWRRHWVVW-NH2 [MAD1] | high avidity | significant increase in clotting time | – | – | – | – | – | – | – | – | – | – | – | – | –
2 | heparin | – | – | 30 min | ~6 h | 1.3 h | 4 to 6 h | 30 min | ~6 h | 1.4 h | 35.5 min | approximately 2 hours | negligible changes in clotting behavior for all time points except 6 hours | initially excreted through the renal system, with additional hepatic clearance observed at ˜6 hours | early liver uptake that later shifted to renal clearance | ~1 h
